Assay [1] can be described thus: Kinetics of NO release from the retention balloon (headspace chemiluminescence). The class given is physicochemical. As to conditions: balloon filled with ascorbic acid/nitrite solution; NO-free air flush 4.5 L/min. An excerpt: The kinetics of NO release from the retention balloon was monitored in separate experiments. The catheter was placed in the flask and after filling the retention balloon with the ascorbic acid/nitrite solution the flask was closed. Synthetic NO-free air was flushed via an inlet at a rate of 4.5 L/min and headspace NO was continuously measured from an outlet by a rapid-response chemiluminescence system (Aerocrine AB, Stockholm, Sweden).

The test system of assay [2] is E. coli isolated from a patient with urinary tract infection and E. coli ATCC 25992. The experiment in a line: Viable counts of E. coli in urine surrounding the filled retention balloon. The class given is cell-based. The settings on record: solution in retention balloon, start 10^5 cfu/ml, 37° C.
A further assay concerns E. coli. The experiment in a line: Comparative experiment with traditional antibiotic in retention balloon or directly in urine.

Regarding `[N]=O` [NO, nitric oxide], the “half-time of decrease of NO release rate from the balloons” value in assay [1] is listed as “about 30 min”.
Regarding `O=C1O[C@H]([C@@H](O)CO)C(O)=C1O` [ascorbic acid alone, ascorbic acid], in assay [2], the “bacterial counts after 24 h” value is on record as 10^8 cfu/ml.
As to `O=C(O)c1cn(C2CC2)c2cc(N3CCNCC3)c(F)cc2c1=O` [ciprofloxacin], the “antibacterial effect in urine” value in the assay on E. coli (antibiotic added directly to the urine) was “effectively killed the bacteria”. Also, in the assay with E. coli (antibiotic placed in the retention balloon), the “antibacterial effect in the urine surrounding the balloon” value is recorded as “no antibacterial effect”.
